ChEMBL document CHEMBL1132382 (J Med Chem, 1999)

organism: Oryctolagus cuniculus; assay: The compound was evaluated for fall in intraocular pressure (IOP) of Normotensive rabbits after treatment with one drop (50 microL) of a 2% solution at 0 min (pH 6.4); type: functional, Eye

| SMILES | Change in IOP |
| --- | --- |
| CCN(C(=O)CNC(=O)CN)C1CC(C)S(=O)(=O)c2sc(S(N)(=O)=O)cc21 (stereo unspecified) | 0 mmHg |
| CCN(C(=O)CN(C)C(=N)N)C1CC(C)S(=O)(=O)c2sc(S(N)(=O)=O)cc21 (stereo unspecified) | 0 mmHg |

organism: Oryctolagus cuniculus; assay: The compound was evaluated for fall in intraocular pressure (IOP) of Normotensive rabbits after treatment with one drop (50 microL) of a 2% solution at 60 min (pH 6.5); type: functional, Eye

| SMILES | Change in IOP |
| --- | --- |
| CNCC(=O)/N=c1\sc(S(N)(=O)=O)nn1C | 6.2 mmHg |
| CNCC(=O)Nc1ccc(S(=O)(=O)Nc2ccc(S(N)(=O)=O)cc2)cc1 | 6.3 mmHg |
| CN(CC(=O)Nc1ccc(S(N)(=O)=O)cc1F)C(=N)N | 7.2 mmHg |

organism: Oryctolagus cuniculus; assay: The compound was evaluated for fall in intraocular pressure (IOP) of Normotensive rabbits after treatment with one drop (50 microL) of a 2% solution at 0 min (pH 5.5); type: functional, Eye

| SMILES | Change in IOP |
| --- | --- |
| NCC(=O)Nc1nnc(S(N)(=O)=O)s1 | 0 mmHg |
| NCC(=O)NCCC(=O)Nc1nnc(S(N)(=O)=O)s1 | 0 mmHg |

organism: Oryctolagus cuniculus; assay: The compound was evaluated for fall in intraocular pressure (IOP) of Normotensive rabbits after treatment with one drop (50 microL) of a 2% solution at 90 min (pH 5.5); type: functional, Eye

| SMILES | Change in IOP |
| --- | --- |
| NCC(=O)Nc1nnc(S(N)(=O)=O)s1 | 4.6 mmHg |
| NCC(=O)NCCC(=O)Nc1nnc(S(N)(=O)=O)s1 | 8.4 mmHg |

organism: Oryctolagus cuniculus; assay: The compound was evaluated for fall in intraocular pressure (IOP) of Normotensive rabbits after treatment with one drop (50 microL) of a 2% solution at 30 min (pH 6.4); type: functional, Eye

| SMILES | Change in IOP |
| --- | --- |
| CCN(C(=O)CNC(=O)CN)C1CC(C)S(=O)(=O)c2sc(S(N)(=O)=O)cc21 (stereo unspecified) | 4.9 mmHg |
| CCN(C(=O)CN(C)C(=N)N)C1CC(C)S(=O)(=O)c2sc(S(N)(=O)=O)cc21 (stereo unspecified) | 5 mmHg |

organism: Oryctolagus cuniculus; assay: The compound was evaluated for fall in intraocular pressure (IOP) of Normotensive rabbits after treatment with one drop (50 microL) of a 2% solution at 30 min (pH 5.5); type: functional, Eye

| SMILES | Change in IOP |
| --- | --- |
| NCC(=O)Nc1nnc(S(N)(=O)=O)s1 | 2.9 mmHg |
| NCC(=O)NCCC(=O)Nc1nnc(S(N)(=O)=O)s1 | 5 mmHg |

organism: Oryctolagus cuniculus; assay: The compound was evaluated for fall in intraocular pressure (IOP) of Normotensive rabbits after treatment with one drop (50 microL) of a 2% solution at 90 min (pH 6.5); type: functional, Eye

| SMILES | Change in IOP |
| --- | --- |
| CNCC(=O)/N=c1\sc(S(N)(=O)=O)nn1C | 5.5 mmHg |
| CNCC(=O)Nc1ccc(S(=O)(=O)Nc2ccc(S(N)(=O)=O)cc2)cc1 | 5.5 mmHg |
| CN(CC(=O)Nc1ccc(S(N)(=O)=O)cc1F)C(=N)N | 5 mmHg |

organism: Oryctolagus cuniculus; assay: The compound was evaluated for fall in intraocular pressure (IOP) of Normotensive rabbits after treatment with one drop (50 microL) of a 2% solution at 90 min (pH 6.4); type: functional, Eye

| SMILES | Change in IOP |
| --- | --- |
| CCN(C(=O)CNC(=O)CN)C1CC(C)S(=O)(=O)c2sc(S(N)(=O)=O)cc21 (stereo unspecified) | 6.9 mmHg |
| CCN(C(=O)CN(C)C(=N)N)C1CC(C)S(=O)(=O)c2sc(S(N)(=O)=O)cc21 (stereo unspecified) | 7.6 mmHg |

target: T1, Carbonic anhydrase 4 (Bos taurus, UniProt Q95323)
T1 sequence (Q95323 whole entry): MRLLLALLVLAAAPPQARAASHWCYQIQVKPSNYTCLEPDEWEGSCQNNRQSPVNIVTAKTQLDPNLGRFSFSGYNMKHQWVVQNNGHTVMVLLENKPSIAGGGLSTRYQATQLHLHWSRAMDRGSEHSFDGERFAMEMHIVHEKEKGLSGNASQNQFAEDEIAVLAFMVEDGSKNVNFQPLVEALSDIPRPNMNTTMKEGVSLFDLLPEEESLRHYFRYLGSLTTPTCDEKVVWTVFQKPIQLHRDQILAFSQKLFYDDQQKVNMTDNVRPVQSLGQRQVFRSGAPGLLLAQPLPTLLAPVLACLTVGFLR
Description: Inhibitory activity against bovine carbonic anhydrase IV (CA4), isolated from bovine lung microsomes

| SMILES | Ki |
| --- | --- |
| CNCC(=O)/N=c1\sc(S(N)(=O)=O)nn1C | 43 nM |
| CCN(C(=O)CNC(=O)CN)C1CC(C)S(=O)(=O)c2sc(S(N)(=O)=O)cc21 (stereo unspecified) | 31 nM |
| NCC(=O)Nc1nnc(S(N)(=O)=O)s1 | 55 nM |
| CNCC(=O)Nc1ccc(S(=O)(=O)Nc2ccc(S(N)(=O)=O)cc2)cc1 | 62 nM |
| CCN(C(=O)CN(C)C(=N)N)C1CC(C)S(=O)(=O)c2sc(S(N)(=O)=O)cc21 (stereo unspecified) | 27 nM |
| CN(CC(=O)Nc1ccc(S(N)(=O)=O)cc1F)C(=N)N | 39 nM |
| NCC(=O)NCCC(=O)Nc1nnc(S(N)(=O)=O)s1 | 10 nM |

organism: Oryctolagus cuniculus; assay: The compound was evaluated for fall in intraocular pressure (IOP) of Normotensive rabbits after treatment with one drop (50 microL) of a 2% solution at 60 min (pH 6.4); type: functional, Eye

| SMILES | Change in IOP |
| --- | --- |
| CCN(C(=O)CNC(=O)CN)C1CC(C)S(=O)(=O)c2sc(S(N)(=O)=O)cc21 (stereo unspecified) | 8.7 mmHg |
| CCN(C(=O)CN(C)C(=N)N)C1CC(C)S(=O)(=O)c2sc(S(N)(=O)=O)cc21 (stereo unspecified) | 9.1 mmHg |

target: Carbonic anhydrase 1 (Homo sapiens, UniProt P00915)
Sequence (P00915 whole entry): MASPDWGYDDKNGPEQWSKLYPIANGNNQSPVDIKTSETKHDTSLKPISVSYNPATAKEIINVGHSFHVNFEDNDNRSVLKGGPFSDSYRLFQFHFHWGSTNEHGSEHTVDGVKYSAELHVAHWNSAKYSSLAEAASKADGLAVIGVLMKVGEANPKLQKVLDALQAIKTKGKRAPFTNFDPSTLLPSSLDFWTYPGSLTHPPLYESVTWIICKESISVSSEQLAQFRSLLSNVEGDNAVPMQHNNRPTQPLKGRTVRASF
Description: Inhibitory activity against human recombinant carbonic anhydrase I (CA1)

| SMILES | Ki |
| --- | --- |
| CNCC(=O)/N=c1\sc(S(N)(=O)=O)nn1C | 290 nM |
| CCN(C(=O)CNC(=O)CN)C1CC(C)S(=O)(=O)c2sc(S(N)(=O)=O)cc21 (stereo unspecified) | 90 nM |
| NCC(=O)Nc1nnc(S(N)(=O)=O)s1 | 350 nM |
| CNCC(=O)Nc1ccc(S(=O)(=O)Nc2ccc(S(N)(=O)=O)cc2)cc1 | 50 nM |
| CCN(C(=O)CN(C)C(=N)N)C1CC(C)S(=O)(=O)c2sc(S(N)(=O)=O)cc21 (stereo unspecified) | 75 nM |
| CN(CC(=O)Nc1ccc(S(N)(=O)=O)cc1F)C(=N)N | 510 nM |
| NCC(=O)NCCC(=O)Nc1nnc(S(N)(=O)=O)s1 | 21 nM |

organism: Oryctolagus cuniculus; assay: The compound was evaluated for fall in intraocular pressure (IOP) of Normotensive rabbits after treatment with one drop (50 microL) of a 2% solution at 30 min (pH 6.5); type: functional, Eye

| SMILES | Change in IOP |
| --- | --- |
| CNCC(=O)/N=c1\sc(S(N)(=O)=O)nn1C | 3.3 mmHg |
| CNCC(=O)Nc1ccc(S(=O)(=O)Nc2ccc(S(N)(=O)=O)cc2)cc1 | 2.5 mmHg |
| CN(CC(=O)Nc1ccc(S(N)(=O)=O)cc1F)C(=N)N | 3 mmHg |

organism: Oryctolagus cuniculus; assay: The compound was evaluated for fall in intraocular pressure (IOP) of Normotensive rabbits after treatment with one drop (50 microL) of a 2% solution at 60 min (pH 5.5); type: functional, Eye

| SMILES | Change in IOP |
| --- | --- |
| NCC(=O)NCCC(=O)Nc1nnc(S(N)(=O)=O)s1 | 9.3 mmHg |

organism: Oryctolagus cuniculus; assay: The compound was evaluated for fall in intraocular pressure (IOP) of Normotensive rabbits after treatment with one drop (50 microL) of a 2% solution at 0 min (pH 6.5); type: functional, Eye

| SMILES | Change in IOP |
| --- | --- |
| CNCC(=O)/N=c1\sc(S(N)(=O)=O)nn1C | 0 mmHg |
| CNCC(=O)Nc1ccc(S(=O)(=O)Nc2ccc(S(N)(=O)=O)cc2)cc1 | 0 mmHg |
| CN(CC(=O)Nc1ccc(S(N)(=O)=O)cc1F)C(=N)N | 0 mmHg |
